Laboratory results as given in US20200253996A1, “TCTP INHIBITING AGENTS FOR THE TREATMENT OF PROLIFERATIVE DISEASES, INFECTIOUS DISEASES, ALLERGIES, INFLAMMATIONS AND/OR ASTHMA” (UNIVERSITE PARIS-SUD, priority 2017, published 2020).
Where two headings read alike, the source gives them in different places. One block for each compound: values may come before it.

What was measured:
[1] = tested on: human cancer line HCT116 (colorectal carcinoma); assay: Cytotoxic activity on HCT116, 72 hours incubation; format: cell-based; settings: for IC50: Homo sapiens, HCT-116, HCT116, 72 hours incubation, concentration inducing 50% cell death; for antiproliferative activity profile (in words): compared with sertraline; for % (viability) at 1 μM: HCT116, 1 μM; for % (viability) at 10 μM: HCT116, 10 μM
Experimental: The cytotoxic activity of the prepared compounds was evaluated on the human cancer line HCT116 (colorectal carcinoma). The selected line was incubated at 37° C. in the presence of one of the prepared compounds added to the culture medium at various concentrations. The inhibitory concentration inducing 50% cell death (IC50) was determined after 72 hours incubation for each compound (Table 1).

TCTP = biological target: T1, TCTP (Homo sapiens, UniProt P13693); assay: Interaction with TCTP by surface plasmon resonance (SPR), Biacore T200; format: binding; settings: for Kd: TCTP bonded to chip, Biacore T200
T1 sequence (P13693 1-172): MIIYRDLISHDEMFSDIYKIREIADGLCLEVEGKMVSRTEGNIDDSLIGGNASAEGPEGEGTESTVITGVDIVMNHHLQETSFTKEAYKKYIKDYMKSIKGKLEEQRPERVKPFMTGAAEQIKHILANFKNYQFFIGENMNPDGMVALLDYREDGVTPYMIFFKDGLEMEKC
Experimental: The interaction of the synthesized molecules with TCTP was evaluated by the surface plasmon resonance (SPR) technique using the Biacore T200 apparatus.
A beam of polarized monochromatic light illuminates a glass interface between two media with different refractive indices, since the angle of incidence is greater than the limiting angle, all the light is reflected, a phenomenon known as total internal reflection. There is then no refraction but an electromagnetic component of the light, the evanescent wave propagates over a distance equivalent to its own wavelength, perpendicular to the interface. At the level of the gold leaf located at the interface between the two media, a resonance between the gold plasmons and the evanescent wave is observed, which results in a loss of light energy in the beam reflected at a precise angle called the resonance angle. This angle is sensitive to the refractive index of the medium wherein the evanescent wave propagates.
A continuous measurement of the variations in the angle of refraction is carried out using a micro-refractometer producing a sensorgram that allows the fixation of the molecules injected into the microfluidic cell to be monitored in real time. The resonance signal is expressed in resonance units (RU) and reports what is present at a given time in the microfluidic cell.
Thus, TCTP is bonded to a chip consisting of a layer of dextran on a gold foil, which in turn is placed on a glass plate. This layer is sandwiched between a microfluidic cell and a prism.
The synthesized compounds are passed through the microfluidic cell and their interaction is evaluated through the received SPR signal (Table 1).

human HCT116 cells = assay: Inhibition of cell growth, CellTiter Glo assay; settings: for GI50 / CC50: Homo sapiens
Experimental: The viability and proliferation of human HCT116 cells is measured using the “CellTiter Glo®” assay (Promega), which is a luminescent measure of the number of living cells. Sertraline and AC070 were tested at 10 concentrations and results are expressed as GI50, TGI, LC50 and IC50 relative to control cells (DMSO).
The CellTiter-Glo® assay is a homogeneous method for determining the number of viable cells in culture based on a quantification of the ATP present, an indicator of metabolically active cells. The homogeneous test procedure involves the addition of a single reagent (the CellTiter-Glo® reagent) directly to the cultured cells in serum-enriched medium.
The results of the test are reported in the following Tables 2 and 3 (Table 2: sertraline and Table 3: AC070): […]

p53 protein = assay: Overexpression of p53 protein, Western blot; format: cell-based; settings: 10 μM
Experimental: The compound AC014 is capable of inducing overexpression of p53 (FIG. 1).
The Western blot was carried out according to the protocol described in the following article: Amson R, Pece S, Lespagnol A, Vyas R, Mazzarol G, Tosoni D, Colaluca I, Viale G, Rodrigues-Ferreira S, Wynendaele J, Chaloin O, Hoebeke J, Marine J C, Di Fiore P P, Telerman A. Nat Med. 2011 Dec. 11; 18(1):91-9.
The following antibodies were used in the Western blot assay: anti-TCTP antibodies were generated against the whole human-derived TCTP. These polyclonal antibodies were purified by affinity column affinity coupled to TCTP (Agro-Bio). Anti-P53 1C12 mouse antibody (Cell Signaling Technology) was used at a dilution of 1/1000.
Secondary antibodies (antirabbit and antimouse) conjugated to HRP were used at a dilution of 1/5000 to visualize the signals by Western blots.

SMILES: c1ccc2c(c1)CCCC2c1ccc2[nH]ccc2c1 (centres unmarked) [AC082, 5-(1,2,3,4-tetrahydronaphthalen-1-yl)-1H-indole]
% (viability) at 1 μM [1]: 9 ± 1% | % (viability) at 10 μM [1]: 33% | Kd (TCTP): 123 ± 33 µM

SMILES: CC(=O)N[C@@H]1CC[C@H](c2ccc(C(=O)NC3OC(COC(C)=O)C(OC(C)=O)C(OC(C)=O)C3OC(C)=O)cc2)c2ccccc21 (stereo in doubt) [VM060-cis, Cis-(2R,3R,4S,5R,6R)-2-(4-acetamido-1,2,3,4-tetrahydronaphthalen-1-yl)benzamido)-6-(acetoxy-methyl)tetrahydro-2H-pyran-3,4,5-triyl triacetate]
% (viability) at 10 μM [1]: 10 μM: 15% (viability) | Kd (TCTP): 26 ± 8 µM

SMILES: Clc1ccc(C2CCCc3ccccc32)cc1Cl (centres unmarked) [AC096, 1-(3,4-dichlorophenyl)-1,2,3,4-tetrahydronaphthalene]
% (viability) at 1 μM [1]: 1 μM: 29 ± 3%. | antiproliferative activity profile (in words) [1]: identical to that of sertraline | affinity for TCTP (in words) (TCTP): excellent affinity | Kd (TCTP): 14 ± 7 µM

SMILES: c1ccc2c(c1)OCCC2c1ccc2ccccc2c1 (centres unmarked) [AC069, 4-(naphthalen-2-yl)chroman]
% (viability) at 1 μM [1]: 0% | % (viability) at 10 μM [1]: 33% | antiproliferative activity profile (in words) [1]: identical to that of sertraline | affinity for TCTP (in words) (TCTP): excellent affinity | Kd (TCTP): 24 ± 16 µM

SMILES: COc1ccc2c(c1)CCCC2c1cccc(Cl)c1 (centres unmarked) [AC101, 1-(3-chlorophenyl)-6-methoxy-1,2,3,4-tetrahydronaphthalene]
IC50 [1]: 7 ± 0.4 µM | Kd (TCTP): 145 ± 34 µM

SMILES: CC(=O)NC1CCC(c2ccc3ccccc3c2)c2ccccc21 (centres unmarked) [AC070, N-(1,2,3,4-tetrahydro-[1,2′-binaphthalen]-4-yl) acetamide]
cytotoxicity compared with sertraline (human HCT116 cells): less cytotoxic than sertraline | activity on cell growth compared with sertraline (human HCT116 cells; HCT116): slightly less active than sertraline | TGI50 1 (human HCT116 cells; HCT116, CellTiter Glo, determination 1): 1.48 µM | TGI50 2 (human HCT116 cells; HCT116, CellTiter Glo, determination 2): 1.44 µM | TGI50 3 (human HCT116 cells; HCT116, CellTiter Glo, determination 3): 1.41 µM | TGI50 Mean (human HCT116 cells; HCT116, CellTiter Glo, mean): 1.44 µM | TGI50 Median (human HCT116 cells; HCT116, CellTiter Glo, median): 1.44 µM | GI50 (human HCT116 cells; HCT-116, read-out: GI50 1): 0.909 µM | GI50 (human HCT116 cells; HCT-116, read-out: GI50 2): 0.881 µM | GI50 (human HCT116 cells; HCT-116, read-out: GI50 3): 0.878 µM | GI50 (human HCT116 cells; HCT-116, read-out: GI50 Mean): 0.89 µM | GI50 (human HCT116 cells; HCT-116, read-out: GI50 Median): 0.889 µM | CC50 (human HCT116 cells; HCT-116, read-out: LC50 1): 2.34 µM | CC50 (human HCT116 cells; HCT-116, read-out: LC50 2): 2.3 µM | CC50 (human HCT116 cells; HCT-116, read-out: LC50 3): 2.2 µM | CC50 (human HCT116 cells; HCT-116, read-out: LC50 Mean): 2.28 µM | CC50 (human HCT116 cells; HCT-116, read-out: LC50 Median): 2.28 µM | GI50 (human HCT116 cells; HCT-116, read-out: cell growth inhibition constant GI50): 0.889 µM | CC50 (human HCT116 cells; HCT-116, read-out: lethal concentration LC50): 2.2 µM

SMILES: CC(=O)NC1CCC(c2cccc(S[C@@H]3OC(COC(C)=O)[C@@H](OC(C)=O)C(OC(C)=O)C3OC(C)=O)c2)c2ccccc21 (stereo in doubt) [AC268-cis, Cis-(2S,3R,4S,5R,6R)-2-((3-((4S)-4-acetamido-1,2,3,4-tetrahydronaphthalen-1-yl)phenyl)thio)-6-(acetoxymethyl)tetrahydro-2H-pyran-3,4,5-triyl triacetate]
Kd (TCTP): 170 ± 31 µM

SMILES: Ic1cccc(C2CCCc3ccccc32)c1 (centres unmarked) [AC041, 1-(3-iodophenyl)-1,2,3,4-tetrahydronaphthalene]
IC50 [1]: 9 ± 1.2 µM | antiproliferative activity profile (in words) [1]: identical to that of sertraline | affinity for TCTP (in words) (TCTP): excellent affinity | Kd (TCTP): 59 ± 30 µM

SMILES: COc1ccc2c(c1)CCCC2c1ccc(Cl)c(Cl)c1 (centres unmarked) [AC095, 1-(3,4-dichlorophenyl)-6-methoxy-1,2,3,4-tetrahydronaphthalene]
% (viability) at 10 μM [1]: 10 μM: 40% (viability) | Kd (TCTP): 150 µM

SMILES: c1ccc2c(c1)CCCC2c1ccc2ccccc2c1 (centres unmarked) [AC014, 1,2,3,4-tetrahydro-1,2′-binaphthalene]
IC50 [1]: 8 ± 1 µM | antiproliferative activity profile (in words) [1]: identical to that of sertraline | affinity for TCTP (in words) (TCTP): excellent affinity | Kd (TCTP): 7 ± 3 µM | expression of the p53 protein (p53 protein): induces | induction of p53 compared to sertraline (p53 protein): more pronounced

SMILES: CC(=O)NC1CCC(c2cc(SC3OC(COC(C)=O)C(OC(C)=O)C(OC(C)=O)C3OC(C)=O)c(C(=O)Nc3cccc4cccnc34)c(S[C@@H]3OC(COC(C)=O)[C@@H](OC(C)=O)C(OC(C)=O)C3OC(C)=O)c2)c2ccccc21 (stereo in doubt) [AC249-cis, Cis-(2S,3R,4S,5R,6R)-2-((5-((4S)-4-acetamido-1,2,3,4-tetrahydronaphthalen-1-yl)-2-(quinolin-8-ylcarbamoyl)-3-(((2R,3S,4R,5S,6S)-3,4,5-triacetoxy-6-(acetoxymethyl)tetrahydro-2H-pyran-2-yl)thio)phenyl)thio)-6-(acetoxymethyl)tetrahydro-2H-pyran-3,4,5-triyl triacetate]
Kd (TCTP): 8 ± 2 µM

The next lines start with results.

affinity for TCTP (in words) (TCTP): excellent affinity | Kd (TCTP): 30 µM
SMILES: c1ccc2c(c1)SCCC2c1ccc2ccccc2c1 (centres unmarked) [AC085, 4-(naphthalen-2-yl)thiochroman]
IC50 [1]: 25 ± 1 µM | antiproliferative activity profile (in words) [1]: identical to that of sertraline

Kd (TCTP): 135 ± 37 µM
SMILES: CC(=O)NC1CCC(c2ccc(Br)cc2)c2ccccc21 (mixture of isomers) [AC088, N-(4-(4-bromophenyl)-1,2,3,4-tetrahydronaphthalen-1-yl)acetamide]
% (viability) at 10 μM [1]: 10 μM: 33% (viability)

affinity for TCTP (in words) (TCTP): excellent affinity | Kd (TCTP): 28.5 ± 10 µM
SMILES: CC(=O)N[C@@H]1CC[C@H](c2ccc(C(=O)OC(C)C)cc2)c2ccccc21 (relative stereo) [AC056, Cis-isopropyl 4-(4-acetamido-1,2,3,4-tetrahydronaphthalen-1-yl)benzoate]
IC50 [1]: 17 ± 3 µM | antiproliferative activity profile (in words) [1]: identical to that of sertraline

affinity for TCTP (in words) (TCTP): excellent affinity | Kd (TCTP): 29 ± 7 µM
SMILES: CC(C)OC(=O)c1ccc(C2CCCc3ccccc32)cc1 (centres unmarked) [AC034, Isopropyl 4-(1,2,3,4-tetrahydronaphthalen-1-yl)benzoate]
IC50 [1]: 25 ± 9 µM | antiproliferative activity profile (in words) [1]: identical to that of sertraline

affinity for TCTP (in words) (TCTP): excellent affinity | Kd (TCTP): 16 ± 11 µM
SMILES: CC(=O)NC1CCC(c2cccc(I)c2)c2ccccc21 (mixture of isomers) [AC087, N-(4-(3-iodophenyl)-1,2,3,4-tetrahydronaphthalen-1-yl)acetamide]
% (viability) at 10 μM [1]: 10 μM: 33% (viability) | antiproliferative activity profile (in words) [1]: identical to that of sertraline

Kd (TCTP): 176 µM
SMILES: CC(=O)N[C@@H]1CC[C@H](c2ccc(C(=O)O)cc2)c2ccccc21 (relative stereo) [VM055-cis, Cis-4-(4-acetamido-1,2,3,4-tetrahydronaphthalen-1-yl)benzoic acid]
